Experiments:
Assay in all cases: relative viability (nuclei count vs DMSO), 5 days (fraction); higher = more cells survive
[1] = compound: C[As](C)SC[C@H](NC(=O)CC[C@H](N)C(=O)O)C(=O)NCC(=O)O [Darinaparsin] + Nc1nc2[nH]cc(CCc3ccc(C(=O)N[C@@H](CCC(=O)O)C(=O)O)cc3)c2c(=O)[nH]1 [Pemetrexed] (partner 0.2 µM)
Summary of the method: (§1)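 After 5 days of treatment, lung cancer cells in 1536-well plates were fixed and stained in a single step (final 0.05% Triton X-100, 1% formaldehyde, 1 ug/ml Hoechst) and their nuclei counted on 4× images. Treatment had been applied by pin tool the day after seeding as one drug alone or as a fixed anchor-drug dose with five library-drug doses (not always all listed) in √10 steps. Relative viability is the nuclei count of treated wells divided by that of vehicle wells, and values are medians of duplicate plates.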

AZ628 + Pictilisib = compound: CC1=C(C=C(C=C1)NC(=O)C2=CC(=CC=C2)C(C)(C)C#N)NC3=CC4=C(C=C3)N=CN(C4=O)C [AZ628] + CS(=O)(=O)N1CCN(Cc2cc3nc(-c4cccc5[nH]ncc45)nc(N4CCOCC4)c3s2)CC1 [Pictilisib] (partner 1 µM)
Summary of the method: as §1

AZ628 + Linsitinib = compound: CC1=C(C=C(C=C1)NC(=O)C2=CC(=CC=C2)C(C)(C)C#N)NC3=CC4=C(C=C3)N=CN(C4=O)C [AZ628] + C[C@]1(O)C[C@@H](c2nc(-c3ccc4ccc(-c5ccccc5)nc4c3)c3c(N)nccn32)C1 [Linsitinib] (partner 1 µM)
Summary of the method: as §1

[2] = compound: C[As](C)SC[C@H](NC(=O)CC[C@H](N)C(=O)O)C(=O)NCC(=O)O [Darinaparsin] + CC(=O)c1c(C)c2cnc(Nc3ccc(N4CCNCC4)cn3)nc2n(C2CCCC2)c1=O [Palbociclib] (partner 0.5 µM)
Summary of the method: as §1

| Cell Line | relative viability ([1]; first compound 0.08 µM) | relative viability ([1]; first compound 0.8 µM) | relative viability ([1]; first compound 2.53 µM) | relative viability ([1]; first compound 8 µM) | relative viability (AZ628 + Pictilisib; first compound 0.08 µM) | relative viability (AZ628 + Pictilisib; first compound 0.253 µM) | relative viability (AZ628 + Pictilisib; first compound 0.8 µM) | relative viability (AZ628 + Pictilisib; first compound 2.53 µM) | relative viability (AZ628 + Pictilisib; first compound 8 µM) | relative viability (AZ628 + Linsitinib; first compound 0.08 µM) | relative viability (AZ628 + Linsitinib; first compound 0.253 µM) | relative viability (AZ628 + Linsitinib; first compound 0.8 µM) | relative viability (AZ628 + Linsitinib; first compound 2.53 µM) | relative viability (AZ628 + Linsitinib; first compound 8 µM) | relative viability ([2]; first compound 0.08 µM) | relative viability ([2]; first compound 0.8 µM) | relative viability ([2]; first compound 2.53 µM) | relative viability ([2]; first compound 8 µM) |
| --- | --- | --- | --- | --- | --- | --- | --- | --- | --- | --- | --- | --- | --- | --- | --- | --- | --- | --- |
| LOU-NH91 | 0.414 | 0.431 | 0.314 | 0.384 | 0.582 | 0.491 | 0.492 | 0.501 | 0.452 | 0.962 | 1 | 1.07 | 0.964 | 0.66 | 0.576 | 0.512 | 0.562 | 0.641 |
| RERF-LC-KJ | 0.513 | 0.441 | 0.448 | 0.484 | 0.573 | 0.633 | 0.612 | 0.513 | 0.487 | 0.799 | 0.874 | 0.841 | 0.855 | 0.7 | 1.13 | 1.11 | 1.02 | 1.08 |
| NCI-H2085 | 0.881 | 0.962 | 0.854 | 0.961 | 0.506 | 0.413 | 0.408 | 0.386 | 0.378 | 0.851 | 0.939 | 0.972 | 0.879 | 0.781 | 0.466 | 0.482 | 0.508 | 0.457 |
| NCI-H1793 | 1.01 | 0.89 | – | 1.05 | 0.345 | 0.202 | 0.32 | 0.275 | 0.196 | 1.32 | 1.11 | 1.09 | 0.687 | 0.602 | 0.359 | 0.374 | – | 0.369 |
| HCC-366 | 0.18 | – | 0.15 | 0.2 | 0.15 | 0.18 | 0.0993 | 0.126 | 0.0787 | 0.551 | 0.454 | 0.426 | 0.543 | 0.114 | 0.603 | – | 0.368 | 0.533 |
| NCI-H2126 | 0.74 | 0.594 | 0.666 | 0.805 | 0.533 | 0.549 | 0.537 | 0.513 | 0.457 | 0.762 | 0.746 | 0.776 | 0.721 | 0.664 | 0.371 | 0.344 | 0.352 | 0.334 |
| EMC-BAC-2 | 0.452 | 0.44 | 0.53 | 0.472 | 0.511 | 0.476 | 0.455 | 0.459 | 0.466 | 0.77 | 0.723 | 0.782 | 0.744 | 0.762 | 0.516 | 0.491 | 0.515 | 0.54 |
| H3255 | 0.576 | 0.587 | 0.522 | 0.54 | 0.457 | 0.499 | 0.463 | 0.398 | 0.225 | 0.965 | 0.859 | 0.965 | 0.968 | 0.737 | 0.303 | 0.313 | 0.329 | 0.294 |
| NCI-H838 | 0.272 | 0.223 | 0.245 | 0.247 | 0.523 | 0.559 | 0.356 | 0.403 | 0.365 | 0.995 | 0.977 | 1.11 | 0.896 | 0.883 | 0.245 | 0.216 | 0.229 | 0.229 |
| NCI-H2009 | 1.09 | 1.07 | 1 | 1.08 | 0.512 | 0.311 | 0.291 | 0.277 | 0.226 | 1.06 | 0.973 | 0.724 | 1.05 | 0.358 | 0.208 | 0.166 | 0.225 | 0.203 |
| HCC-15 | 0.223 | 0.221 | 0.211 | 0.213 | 0.729 | 0.533 | 0.52 | 0.553 | 0.33 | 0.918 | 0.799 | 0.704 | 0.695 | 0.414 | 0.639 | 0.773 | 0.723 | 0.882 |

Source: the supplement of paper PMC10307832
